Measurements published in patent US7968605B2, “Methods for treating inflammatory disease by administering aldehydes and derivatives thereof” (ALFAMA—Investigação e Desenvolvimento de Produtos …, priority 2002, dated 2011).
Each block holds one compound with its values, some of them ahead of it.

Legend:
[1] = CO release from aldehyde prodrug compounds in TBHP plus rpmi solution; settings: for CO release / Rate of CO release: 1.5 ml rpmi + 0.5 ml TBHP, 37° C.
adjuvant arthritis [2] = assay: Anti-arthritic activity, adjuvant arthritis in Sprague-Dawley rats; assay type: in vivo; settings: 100 mg/kg/day intraperitoneal for 20 days from day 10
Protocol: Adjuvant arthritis was induced in outbred Sprague-Dawley rats by intradermal injection into the subplantar area of the right hind paw of 0.1 ml of a 10 mg/ml suspension of Mycobacterium butyricum, killed and dried in Freund's incomplete adjuvant. Treatment was initiated 10 days after disease induction at the time of disease onset. Groups of 7 rats received intraperitoneal injections of compound 1 and compound 2 in 1 ml PBS, each at a dose of 100 mg/kg/day for 20 days. A control group of 7 rats received no treatment. Progression of arthritis was monitored by daily measurements of right and left paw volumes by a water displacement method using a plethysmometer, by daily measurements of the ankle circumference with a flexible strip, and by determination of the arthritic index based on levels of erythema and oedema of the entire paws and digits, number of joints involved, spondylosis, lesions on the tail, movement capacity and infections. The maximum possible score was 11.

adjuvant arthritis [3] = assay: Anti-arthritic activity, adjuvant arthritis in Lewis rats; assay type: in vivo; settings: for Arthritic score / Increase in paw volume compared to vehicle or untreated rats: 100 and 25 mg/kg daily
[4] = CO release from aldehydes in different media (TBHP, H2O2, rpmi, pH 2), gas chromatograph; settings: for CO release in rpmi: RPMI media with 10% fetal calf serum; for CO release in rpmi / CO release in TBHP solution / CO release in H2O2 solution / Media in which CO release was observed: 37° C.; for CO release in TBHP solution: TBHP solution in excess, aldehyde about 0.11-0.17 M; for Effect of radical trap 2,6-di-tert-butylphenol on CO release in acidic aqueous solution: acidic aqueous solution plus radical trap; for CO release in pH 2 (acidic aqueous) solution: aqueous solution pH 2-2.5, 37° C.; for CO release in H2O2 solution: hydrogen peroxide solution, 35% in water; for Media in which CO release was observed: tested in TBHP, H2O2, rpmi and pH 2 solutions
[5] = 25 mg/kg daily injections for 30 days from day 10
[6] = 100 mg/kg daily injections for 30 days from day 10
[7] = listed as 4-ethyl-4-formyl-hexanenitrile

SMILES: CC(C)(C)C=Nc1ccc(C(=O)O)c(O)c1
CO release [1]: Stable, but instaneous hydro- lysis was observed when dissolved in water

CO release [1]: No hydrolysis → No CO
SMILES: CC(C)(C)C=NNC(=O)c1ccccc1

CO release [1]: No hydrolysis → No CO
SMILES: CC(C)(C)/C=N/NC(=O)Nc1ccccc1

CO release after 6 hours ([1]; TBHP plus rpmi): 0% | CO release after 24 hours ([1]; TBHP plus rpmi): 4.2%
SMILES: COC(=O)C1COC(C(C)(C)C)N1 (stereo not shown)

SMILES: CC1C(c2ccccc2)OC(C(C)(C)C)N1C (stereo not shown)
CO release [1]: No hydrolysis → No CO

CO release [1]: No hydrolysis → No CO
SMILES: CC(C)(C)C1Nc2ccccc2CO1 (stereo not shown)

CO release [1]: released CO | Rate of CO release [1]: fast within the first 6 hours | CO release after 5 hours ([1]; TBHP plus rpmi, 5 hours): 17% | CO release after 6 hours ([1]; TBHP plus rpmi): around 16% | CO release after 23 hours ([1]; TBHP plus rpmi, 23 hours): 21% | CO release after one day ([1]; TBHP plus rpmi): 20%
SMILES: CC(C)(C)C1NC(C(=O)O)CS1 (racemic) [compound 9, 2-tert-butylthiazolidine-4-carboxylic acid]

CO release [1]: released CO | Rate of CO release [1]: very slow | CO release after 6 hours ([1]; TBHP plus rpmi): 0.3% | CO release after 25 hours ([1]; TBHP plus rpmi): 10.3% | CO release after one day ([1]; TBHP plus rpmi): about 10%
SMILES: COC(=O)C1CSC(C(C)(C)C)N1 (racemic) [compound 10]

CO release [1]: released CO | Rate of CO release [1]: initially very slowly | CO release after 6 hours ([1]; TBHP plus rpmi): 3% | CO release after 24 hours ([1]; TBHP plus rpmi): 25% | CO release after one day ([1]; TBHP plus rpmi): about 25%
SMILES: CC(C)(C)C1NCCS1 (racemic) [compound 11, 2-tert-butyl-thiazolidine]

CO release [1]: lower than its 5-membered ring analogue | CO release after 6 hours ([1]; TBHP plus rpmi): 7.7% | CO release after 25 hours ([1]; TBHP plus rpmi): 15.8% | CO release after one day ([1]; TBHP plus rpmi): about 16%
SMILES: CC(C)(C)C1NC(C(=O)O)CCS1 (racemic) [compound 12, 2-tert-butyl-[1,3]thiazinane-4-carboxylic acid]

CO release at higher and lower aldehyde concentrations relative to maximum ([4]; 0.25 M and 0.08 M aldehyde in TBHP): decreased approximately to half | Aldehyde concentration giving maximum CO release ([4]; 1.9 M TBHP): around 0.12 M | CO release in rpmi [4]: No CO was detected | CO release at TBHP concentration of inflamed tissues ([4]; TBHP 1 mM): CO release still was observed | CO release in TBHP solution [4]: released CO | Effect of radical trap 2,6-di-tert-butylphenol on CO release in TBHP solution ([4]; TBHP solution plus radical trap): inhibited | Effect of radical trap 2,6-di-tert-butylphenol on CO release in acidic aqueous solution [4]: inhibited | CO release in pH 2 (acidic aqueous) solution [4]: very little | CO release in H2O2 solution [4]: No CO was detected
SMILES: CC(C)(C)C=O [compound 1, trimethylacetaldehyde]
Body weight after disease onset (adjuvant arthritis [2]): No loss of body weight was observed | Paw circumference (right and left) (adjuvant arthritis [2]): prevented the increase | Paw volume (right and left) (adjuvant arthritis [2]): prevented the increase | Increase in body weight by day 40 (adjuvant arthritis [3]; [5]): 38.7% | Increase in body weight by day 40 (adjuvant arthritis [3]; [6]): 40% | Arthritic score (adjuvant arthritis [3]): only slightly influenced | Increase in paw volume compared to vehicle or untreated rats (adjuvant arthritis [3]): reduced the increase in paw volume | Dependence of CO release on TBHP concentration ([4]; 0.23 M aldehyde, varying TBHP, up to 32 eq.): increased with the concentration of TBHP until approximately eight equivalents of TBHP was reached

CO release in rpmi [4]: decarbonylation in rpmi observed | CO release in rpmi ([4]; listed as 2,2-dimethyl-4-pentenal): even less | CO release in TBHP solution [4]: released CO | CO release in pH 2 (acidic aqueous) solution [4]: very little | CO release in H2O2 solution [4]: No CO release was observed
SMILES: C=CCC(C)(C)C=O [compound 2, 2,2-dimethyl-4-pentenal]
Body weight after disease onset (adjuvant arthritis [2]): No loss of body weight was observed | Paw circumference (right and left) (adjuvant arthritis [2]): prevented the increase | Paw volume (right and left) (adjuvant arthritis [2]): prevented the increase

CO release in rpmi [4]: decarbonylation in rpmi observed | CO release in rpmi [4, 7]: even less | CO release in TBHP solution [4]: released a very high amount of CO | Effect of radical trap 2,6-di-tert-butylphenol on CO release in acidic aqueous solution [4]: inhibited the decarbonylation process | CO release in pH 2 (acidic aqueous) solution [4]: decarbonylated significantly | CO release in pH 2 (acidic aqueous) solution [4, 7]: less | CO release in H2O2 solution [4]: No CO release was observed
SMILES: CCC(C=O)(CC)CCC#N [compound 3, 4-ethyl-4-formyl-hexanenitrile]

Media in which CO release was observed [4]: released CO only in TBHP solution
SMILES: CC(C)(C=O)CO [compound 4, 3-hydroxy-2,2-dimethylpropanal]
Time course of CO release in TBHP solution ([4]; TBHP solution, 0.12 M): initially the CO release was small, but within one day, it reached high levels

CO release in rpmi [4]: decarbonylation in rpmi observed | Effect of radical trap 2,6-di-tert-butylphenol on CO release in acidic aqueous solution [4]: inhibited the decarbonylation process | CO release in pH 2 (acidic aqueous) solution [4]: decarbonylated significantly
SMILES: Cc1ccc(CC(C)(C)C=O)cc1 [compound 6, 2,2-dimethyl-3-(p-methylphenyl)propanal]
Media in which CO release was observed [4]: released CO in all media tested except H2O2 solution

Effect of radical trap 2,6-di-tert-butylphenol on CO release in acidic aqueous solution [4]: inhibited the decarbonylation process | CO release in pH 2 (acidic aqueous) solution [4]: decarbonylated significantly
SMILES: CC(C)(C=O)c1ccccc1 [compound 7, 2-methyl-2-phenylpropionaldehyde]
Increase in body weight by day 40 (adjuvant arthritis [3]; [5]): 28.6% | Days with significant inhibition of arthritic score relative to vehicle treated rats (adjuvant arthritis [3]; 100 mg/kg): 14 days | Reduction in paw volume compared with dexamethasone (adjuvant arthritis [3]; 100 mg/kg): comparable to that seen in rats treated with dexamethasone | Increase in body weight by day 40 (adjuvant arthritis [3]; [6]): 31.6% | Arthritic score (adjuvant arthritis [3]): only slightly influenced | Increase in paw volume compared to vehicle or untreated rats (adjuvant arthritis [3]): reduced the increase in paw volume | CO release in H2O2 solution [4]: responded significantly to decarbonylation | Media in which CO release was observed [4]: released CO in all media tested except rpmi solution

SMILES: C[C@@H]1C[C@H]2[C@@H]3CCC4=CC(=O)C=C[C@]4(C)[C@@]3(F)[C@@H](O)C[C@]2(C)[C@@]1(O)C(=O)CO [dexamethasone, reference compound]
Increase in body weight by day 40 (adjuvant arthritis [3]; dexamethasone 0.3 mg/kg daily for 30 days from day 10): 25.7%
